Reference: patent publication US20250025435A1, “CO-CRYSTALS OF NONSTEROIDAL ANTI-INFLAMMATORY DRUGS, LYSINE AND GABAPENTIN, PHARMACEUTICAL COMPOSITIONS AND THEIR MEDICAL USE” (DOMPE' FARMACEUTICI SPA, priority 2021, published 2025)

Legend:
[1] = test system: carrageenan-induced rat paw edema; test: Carrageenan-induced rat paw edema test; format: in vivo, Male Wistar rats; conditions: for volume reduction of paw edema in rats (%): vs vehicle-treated group, single oral dose; for paw thickness: mean±SEM, n=8, vehicle 9.55±0.47 mm
[2] = test system: mechanical allodynia in carrageenan-injected rats; test: Mechanical allodynia (von Frey, up and down method) in rat carrageenan-induced paw edema model; format: in vivo, Male Wistar rats; conditions: 3 h post-carrageenan; ipsilateral paw; n=8; vehicle 8.25±1.61 g, baseline 80±7.56 g
[3] = cited from earlier work
[4] = design: species or system Sprague Dawley male rat; conditions: rat, in vivo, po
Source text: Sprague Dawley male rat (body weights 310 gr at the time of the treatment) were used in this study. The animals were originally supplied by Harlan, Italy. Once receipt from the supplier, the animals were subjected to health examinations and acceptance. The animals were housed, in a group of three, in cages suitable for the species and were routinely kept in the following environment except for short periods of time where experimental procedures dictated otherwise. The animals were acclimatized to local housing conditions for approximately 5 days. The animals were housed in a single, exclusive room, air conditioned to provide a minimum of 15 air changes/hour. The environmental controls were set to maintain temperature within the range 22° C. and relative humidity within the range 50 to 60% with an approximate 12 hour light and 12 hour dark cycle that is controlled automatically. Food (Mucedola Standard GLP diet) and water were available ad libitum throughout the study. All animals were weighed on the day of each treatment. Clinical signs were monitored at regular intervals throughout the study in order to assess any reaction to treatment. Each animal was uniquely identified with a coloured spray on the back before the experiment. At the end of the study animals were sacrificed by exsanguination under anaesthesia. […]

Compound | volume reduction of paw edema in rats (%) ([1]; 1 h post-carrageenan) | volume reduction of paw edema in rats (%) ([1]; 3 h post-carrageenan) | paw thickness ([1]; 5 h post-carrageenan) [mm] | volume reduction of paw edema in rats (%) ([1]; 5 h post-carrageenan) | paw withdrawal threshold [2] [g] | time to utmost level in plasma ([3]; after oral administration (Quintero 2017)) [h] | excretion half-life ([3]; expelled by the renal system) | Cmax (ng/mL) Flurbiprofen [4] [ng/mL] | Cmax (ng/mL) Gabapentin [4] [ng/mL]
CC(C(=O)O)c1ccc(-c2ccccc2)c(F)c1 (stereo not drawn) [Flurbiprofen] | −18.20 | −31.50 | 6.5±0.28 | −32.0 | 44.62 ± 14.43 | – | – | – | –
NCC1(CC(=O)O)CCCCC1 [Gabapentin] | −1.93 | −16.21 | 7.45±0.26 | −17.27 | 66.5 ± 11 | 3 to 4 | roughly 6 hours | – | –
COc1ccc2c(c1)c(CC(=O)O)c(C)n2C(=O)c1ccc(Cl)cc1 [Indomethacin] | −17.68 | −35.27 | 5.69±0.27 | −40.45 | 36 ± 7.21 | – | – | – | –
Flurbiprofen-Lysine-Gabapentin [Flur/Lys/Gaba] | −21.80 | −39.91 | 5.51±0.42 | −42.27 | 85.75 ± 9.86 | – | – | 14725 ± 1267 | 3008 ± 246
